Article PMC12410356 (International Journal for Parasitology: Drugs and Drug …, 2025)

Tests used:
[1] = test system: E. multilocularis metacestode vesicles; assay: Phosphoglucose isomerase (PGI) release assay (damage-marker release) on metacestode vesicles; type: cell-based, Echinococcus multilocularis; conditions: overview screen, 10 μM, singlets, relative to 0.1 % Triton X-100, DMSO subtracted; for PGI d5 (relative PGI release): 5 days; for PGI d12 (relative PGI release): 12 days
[2] = test system: E. multilocularis metacestode vesicles; assay: Metacestode vesicle viability assay (ATP, CellTiter-Glo); type: cell-based, Echinococcus multilocularis; conditions: overview screen, 10 μM, singlets, 12 days, relative to DMSO control
Protocol: Viability was assessed after 12 days using the same metacestode vesicles as for the PGI release assay. Triton X-100 was added to each well to a final concentration of 0.1 %. Subsequently the metacestode vesicles were broken mechanically and 50 μL of the supernatant was mixed with 50 μL of CellTiter-Glo® buffer (Promega, Dübendorf, Switzerland). Measurements were performed on a HIDEX Sense microplate reader.

SMILES	PGI d5 (relative PGI release) [1]	PGI d12 (relative PGI release) [1]	Viability d12 (relative viability) [2]
CC(C)Oc1ccc(-c2nc(-c3cccc4c3CC[C@@H]4NCCO)no2)cc1C#N [MMV1580492]	-0.3732%	-18.7012%	55.483%
O=C(/C=C\n1cnc(-c2cc(C(F)(F)F)cc(C(F)(F)F)c2)n1)NNc1ccccn1 [MMV1580493]	1.061%	0.9356%	159.076%
CCC[C@H](NC(=O)[C@@H]1[C@H]2CCC[C@H]2CN1C(=O)[C@@H](NC(=O)[C@@H](NC(=O)c1cnccn1)C1CCCCC1)C(C)(C)C)C(=O)C(=O)NC1CC1 [MMV1580494]	0.1247%	-0.8271%	83.9614%
Nc1cnn(C2OC(CO)C(O)C2O)c(=O)n1 (stereo not drawn) [MMV1580495]	0.6182%	10.061%	84.6299%
NC(=S)N/N=C/c1ncccc1N [MMV1580496]	-0.2661%	1.095%	58.7881%
CC(C)(C)NC(=O)N[C@H](C(=O)N1C[C@H]2[C@@H]([C@H]1C(=O)NC(CC1CCC1)C(=O)C(N)=O)C2(C)C)C(C)(C)C (stereo partly drawn) [MMV1580497]	0.3266%	69.2218%	40.5469%
O=C(O)C[C@H]1CC[C@H](c2ccc(-c3ccc(Nc4ccc(C(F)(F)F)nc4)cn3)cc2)CC1 [MMV1580498]	0.9992%	1.035%	139.746%
COc1ccc(NS(=O)(=O)c2ccc(Cl)s2)cn1 [MMV1580499]	0.09331%	-16.9426%	78.1001%
Cn1c2ccccc2c(=O)c2c(O)cccc21 [MMV1580500]	1.098%	-0.5737%	90.8954%
CC1(C)CC(NC(=O)C(=O)Nc2ccc(Cl)cc2)CC(C)(C)N1 [MMV1580501]	0.3852%	0.4399%	102.317%
c1cc(CN2CCCNCCNCCCNCC2)ccc1CN1CCCNCCNCCCNCC1 [MMV1580502]	-0.2909%	2.621%	124.773%
CC(=O)N1c2ccccc2NC2=C(C(=O)CC(C)(C)C2)C1c1ccc(OCc2ccccc2)cc1 (stereo not drawn) [MMV1580503]	1.18%	-18.9728%	72.2027%
Oc1ccc(NCc2ccccc2OCc2ccccc2)cc1 [MMV1580504]	-1.084%	-20.6703%	79.6345%
O=C(Nc1ccc(N2CCN(C(=O)c3ccccc3)CC2)cc1)c1ccc2c(c1)OCO2 [MMV1580505]	-0.142%	-0.2928%	160.891%
C[C@H](NC(=O)C(=O)Nc1ccccc1C(C)(C)C)C(=O)N[C@@H](CC(=O)O)C(=O)COc1c(F)c(F)cc(F)c1F [MMV1580794]	-0.7921%	-19.0747%	57.1149%
CC[C@@]1(O)C(=O)OCc2c1cc1n(c2=O)Cc2cc3c([N+](=O)[O-])cccc3nc2-1 [MMV1580796]	0.7883%	-0.447%	120.917%
OCCC#Cc1nc(-c2ccc(F)cc2)c(-c2ccncc2)n1CCCc1ccccc1 [MMV1580797]	0.809%	-17.1938%	270.956%
Cc1[nH]c2ccccc2c1CC(=O)N[C@@H](Cc1ccccc1)C(=O)N(C)c1ccccc1 [MMV1580798]	0.141%	-4.531%	204.25%
